MIC data for three molecules are collected here from patent publication US4337199A, “Antibiotic β-lactam compounds, production thereof, and their use as antimicrobial agent” (Sanraku-Ocean Co., Ltd., priority 1978, dated 1982).

Values after ≈ are worked out from the molar mass of the structure shown.

Holding throughout (test): minimum inhibitory concentration, agar dilution assay
Common to all, as to format: cell-based

One test concerns Proteus sp. P22. The note with it: agar dilution, 35° C., 20 hours; read-out: minimum inhibitory concentration. As for the experimental part: (§1) The antibiotic activities shown in Tables I-1 to I-8 above were determined in the following manner.
(§2) The minimum inhibitory concentrations of the compounds of formula (I-a-1) or (I-b-1) in Tables I-1 to I-7 and the known compounds in Table I-8 on the various microorganisms shown in the above tables were measured by an agar dilution assay method using a brain heart infusion agar medium "Difco" (a product of Difco Laboratories Inc.)
(§3) A sample of the test compound was dissolved in sterile distilled water and diluted to prepare a two-fold dilution series of the compound solution. In a petri plate of 9 cm diameter, 1 ml of the compound solution was added to 9 ml of molten sterile heart infusion agar medium (Difco Laboratories Inc.) at about 60° C. to prepare the compound-containing agar plate. An overnight culture of each test organism indicated in the above table which was prepared by stationary cultivation in Trypto-Soy broth (Eiken Chemi. Co., Ltd.) at 35° C. for 18 to 20 hours, was diluted with the Trypto-Soy broth to give approximately 10^8 cells/ml and the diluted inoculum was inoculated onto the compound-containing agar plates. After cultivating the plates at 35° C. for 20 hours, the growth of the organism was observed. The minimum concentration of the compound at which no growth of the microorganism was noted was determined, and defined as the minimum inhibitory concentration of the test compound.

A further test deals with Providencia sp. P8. The note with it: SP.P8, agar dilution, 35° C., 20 hours, read-out: minimum inhibitory concentration. As to the method:
as §1, §2, §3
On the technique in general: In agar dilution the substance is mixed into plates at graded concentrations.

In a further test the test system is Serratia marcescens S18. Conditions: S18, agar dilution, 35° C., 20 hours, read-out: minimum inhibitory concentration. As to the method:
as §1, §2, §3

Test [1] has as its system Staphylococcus aureus Russell. Conditions: agar dilution, 35° C., 20 hours, read-out: minimum inhibitory concentration. As for the experimental part: as §1, §2, §3
The next test relates to Sarcina lutea. Conditions: Micrococcus luteus; agar dilution, 35° C., 20 hours; read-out: minimum inhibitory concentration. As for the experimental part: as §1, §2, §3
Test [2] deals with Comamonas terrigena B-996. The note with it: B996, agar dilution, 35° C., 20 hours, read-out: minimum inhibitory concentration. As for the experimental part: as §1, §2, §3
In test [3] the test system is Citrobacter freundii GN 346. The note with it: GN346, agar dilution, 35° C., 20 hours, read-out: minimum inhibitory concentration. As to the method:
as §1, §2, §3

In test [4] the test system is Enterobacter aerogenes E19. The note with it: Klebsiella aerogenes, E19; agar dilution, 35° C., 20 hours; read-out: minimum inhibitory concentration. As to the method: as §1, §2, §3
The subject of test [5] is Bacillus subtilis ATCC 6633. Conditions: ATCC6633, agar dilution, 35° C., 20 hours, read-out: minimum inhibitory concentration. As to the method: as §1, §2, §3
The next test relates to Enterobacter cloacae 45. Conditions: Enterobacter cloacae, 45; agar dilution, 35° C., 20 hours; read-out: minimum inhibitory concentration. As for the experimental part:
as §1, §2, §3

For test [6], the system named is Pseudomonas aeruginosa IFO3445. The note with it: IFO3445, agar dilution, 35° C., 20 hours, read-out: minimum inhibitory concentration. As to the method:
as §1, §2, §3

Another test has as its system Proteus rettgeri P7. Conditions: Providencia rettgeri, P7; agar dilution, 35° C., 20 hours; read-out: minimum inhibitory concentration. As to the method: as §1, §2, §3
In a further test the test system is Proteus mirabilis P6. The note with it: P6, agar dilution, 35° C., 20 hours, read-out: minimum inhibitory concentration. As to the method: as §1, §2, §3
A further test relates to Escherichia coli K-12. The note with it: K12, agar dilution, 35° C., 20 hours, read-out: minimum inhibitory concentration. As to the method: as §1, §2, §3
Test [7] concerns Klebsiella pneumoniae K-13. Conditions: K13, agar dilution, 35° C., 20 hours, read-out: minimum inhibitory concentration. As to the method:
as §1, §2, §3

Test [8] deals with Staphylococcus epidermidis. Conditions: agar dilution, 35° C., 20 hours, read-out: minimum inhibitory concentration. As for the experimental part: as §1, §2, §3
Test [9] has as its system Staphylococcus aureus FDA 209P. Conditions: FDA209P, agar dilution, 35° C., 20 hours, read-out: minimum inhibitory concentration. As to the method:
as §1, §2, §3

Test [10] concerns Staphylococcus aureus Smith. The note with it: agar dilution, 35° C., 20 hours, read-out: minimum inhibitory concentration. As for the experimental part:
as §1, §2, §3

Test [11] relates to Pseudomonas aeruginosa NCTC10490. The note with it: NCTC10490, agar dilution, 35° C., 20 hours, read-out: minimum inhibitory concentration. As to the method: as §1, §2, §3
For the next test, the system named is Proteus vulgaris GN76. Conditions: GN76, agar dilution, 35° C., 20 hours, read-out: minimum inhibitory concentration. As to the method:
as §1, §2, §3

The next test deals with Alcaligenes faecalis A 1. Conditions: A1, agar dilution, 35° C., 20 hours, read-out: minimum inhibitory concentration. As to the method:
as §1, §2, §3

Another test deals with Enterobacter sp. E8. The note with it: SP.E8, agar dilution, 35° C., 20 hours, read-out: minimum inhibitory concentration. As for the experimental part:
as §1, §2, §3

The test system of a further test is Serratia marcescens T55. Conditions: T55, agar dilution, 35° C., 20 hours, read-out: minimum inhibitory concentration. As for the experimental part: as §1, §2, §3
The next test relates to Escherichia coli RGN 823. Conditions: RGN823, agar dilution, 35° C., 20 hours, read-out: minimum inhibitory concentration. As for the experimental part:
as §1, §2, §3

Regarding `CC(O)C1C(=O)N2C(C(=O)O)=C(SCCO)CC12` (stereo not drawn) [R1 --OH**, R21 --CH2 CH2 OH], the MIC is 100 mg/L (≈ 366 µM) with Proteus sp. P22; 0.78 mg/L (≈ 2.85 µM) in the test on Providencia sp. P8; 12.5 mg/L (≈ 45.7 µM) in the test on Serratia marcescens S18; 0.2 mg/L (≈ 0.732 µM) in [1]; 0.013 mg/L (≈ 0.0476 µM) in the test with Sarcina lutea; 0.013 mg/L (≈ 0.0476 µM) in [2]. The MIC in [3] stood at 0.78 mg/L (≈ 2.85 µM); in test [4] it was 0.39 mg/L (≈ 1.43 µM); in test [5], 0.013 mg/L (≈ 0.0476 µM); in the test with Enterobacter cloacae 45 it was 1.56 mg/L (≈ 5.71 µM); in test [6], 25 mg/L (≈ 91.5 µM); in the test with Proteus rettgeri P7, 6.25 mg/L (≈ 22.9 µM). In addition, the MIC in the test with Proteus mirabilis P6 was found to be 3.13 mg/L (≈ 11.5 µM); with Escherichia coli K-12 it was 0.2 mg/L (≈ 0.732 µM); in [7], 25 mg/L (≈ 91.5 µM); in test [8], 0.2 mg/L (≈ 0.732 µM); in [9], 0.013 mg/L (≈ 0.0476 µM); in test [10], 0.1 mg/L (≈ 0.366 µM). In addition, the MIC was 25 mg/L (≈ 91.5 µM) in test [11]; 25 mg/L (≈ 91.5 µM) in the test with Proteus vulgaris GN76; 0.39 mg/L (≈ 1.43 µM) in the test on Alcaligenes faecalis A 1; 0.2 mg/L (≈ 0.732 µM) with Enterobacter sp. E8; 12.5 mg/L (≈ 45.7 µM) with Serratia marcescens T55; 6.25 mg/L (≈ 22.9 µM) with Escherichia coli RGN 823.

As for `CC(C)C1C(=O)N2C(C(=O)O)=C(SCCO)CC12` (stereo not drawn) [R1 --CH3, R21 --CH2 CH2 OH], the MIC with Proteus sp. P22 stood at 50 mg/L (≈ 184 µM); in the test on Providencia sp. P8, 6.25 mg/L (≈ 23 µM); in the test with Serratia marcescens S18 it was 12.5 mg/L (≈ 46.1 µM); in test [1], 0.39 mg/L (≈ 1.44 µM); in the test with Sarcina lutea it was 0.39 mg/L (≈ 1.44 µM); in test [2], 0.05 mg/L (≈ 0.184 µM). In addition, the MIC in [3] turned out to be 12.5 mg/L (≈ 46.1 µM); in [4], 12.5 mg/L (≈ 46.1 µM); in test [5] it was 0.39 mg/L (≈ 1.44 µM); in the test on Enterobacter cloacae 45, 25 mg/L (≈ 92.1 µM); in test [6] it was 12.5 mg/L (≈ 46.1 µM); in the test with Proteus rettgeri P7, 12.5 mg/L (≈ 46.1 µM). Besides, the MIC in the test on Proteus mirabilis P6 turned out to be 25 mg/L (≈ 92.1 µM); with Escherichia coli K-12, 12.5 mg/L (≈ 46.1 µM); in test [7], 12.5 mg/L (≈ 46.1 µM); in test [8], 0.39 mg/L (≈ 1.44 µM); in [9], 0.2 mg/L (≈ 0.737 µM); in test [10] it was 0.39 mg/L (≈ 1.44 µM). Also, the MIC in test [11] is 25 mg/L (≈ 92.1 µM); in the test with Proteus vulgaris GN76 it was 25 mg/L (≈ 92.1 µM); with Alcaligenes faecalis A 1, 1.56 mg/L (≈ 5.75 µM); in the test with Enterobacter sp. E8, 12.5 mg/L (≈ 46.1 µM); with Serratia marcescens T55, 50 mg/L (≈ 184 µM); in the test on Escherichia coli RGN 823, 12.5 mg/L (≈ 46.1 µM).

On to `CC(C)C1C(=O)N2C(C(=O)O)=C(Sc3ccccc3)CC12` (stereo not drawn), for which the MIC in the test with Proteus sp. P22 is 100 mg/L (≈ 330 µM); in the test with Providencia sp. P8, 25 mg/L (≈ 82.4 µM); in the test on Serratia marcescens S18, > 100 mg/L; in [1], 0.025 mg/L (≈ 0.0824 µM); in the test with Sarcina lutea it was 0.013 mg/L (≈ 0.0429 µM); in [2], 0.007 mg/L (≈ 0.0231 µM). In addition, the MIC in test [3] is > 100 mg/L; in [4] it was > 100 mg/L; in [5], 0.1 mg/L (≈ 0.33 µM); with Enterobacter cloacae 45, > 100 mg/L; in [6] it was 25 mg/L (≈ 82.4 µM); in the test on Proteus rettgeri P7, 100 mg/L (≈ 330 µM). The MIC is > 100 mg/L in the test with Proteus mirabilis P6; 50 mg/L (≈ 165 µM) in the test with Escherichia coli K-12; > 100 mg/L in [7]; 0.025 mg/L (≈ 0.0824 µM) in test [8]; 0.013 mg/L (≈ 0.0429 µM) in test [9]; 0.2 mg/L (≈ 0.659 µM) in test [10]. The MIC is 6.25 mg/L (≈ 20.6 µM) in test [11]; > 100 mg/L in the test with Proteus vulgaris GN76; 6.25 mg/L (≈ 20.6 µM) in the test with Alcaligenes faecalis A 1; > 100 mg/L in the test with Enterobacter sp. E8; > 100 mg/L in the test on Serratia marcescens T55; 50 mg/L (≈ 165 µM) with Escherichia coli RGN 823.
